The NIST ThermoML archive (doi:10.1021/je200721d)
Numbers after ± are expanded uncertainties.

Assay: xn = mol fraction of the nth substance listed
Conditions: Liquid, Vibrating tube method

Which results are given for `CCCCCCCC` [octane] + CCCCCC?
mass density (362.88 K, 4000 kPa, x2 = 0.1654): 644.35 ± 0.29 kg/m3; mass density (362.88 K, 4000 kPa, x2 = 0.2199): 642.17 ± 0.3 kg/m3; mass density (362.88 K, 5000 kPa, x2 = 0.1654): 645.69 ± 0.3 kg/m3; mass density (362.88 K, 5000 kPa, x2 = 0.2199): 643.54 ± 0.3 kg/m3; mass density (362.88 K, 6000 kPa, x2 = 0.1654): 647.04 ± 0.31 kg/m3; mass density (362.88 K, 6000 kPa, x2 = 0.2199): 644.88 ± 0.31 kg/m3; mass density (362.88 K, 7000 kPa, x2 = 0.1654): 648.35 ± 0.32 kg/m3; mass density (362.88 K, 7000 kPa, x2 = 0.2199): 646.21 ± 0.32 kg/m3; mass density (362.88 K, 8000 kPa, x2 = 0.1654): 649.64 ± 0.33 kg/m3; mass density (362.88 K, 8000 kPa, x2 = 0.2199): 647.53 ± 0.33 kg/m3; mass density (362.88 K, 9000 kPa, x2 = 0.1654): 650.92 ± 0.34 kg/m3; mass density (362.88 K, 9000 kPa, x2 = 0.2199): 648.82 ± 0.34 kg/m3; mass density (362.88 K, 10000 kPa, x2 = 0.1654): 652.16 ± 0.35 kg/m3; mass density (362.88 K, 10000 kPa, x2 = 0.2199): 650.09 ± 0.35 kg/m3; mass density (362.88 K, 11000 kPa, x2 = 0.1654): 653.43 ± 0.36 kg/m3; mass density (362.88 K, 11000 kPa, x2 = 0.2199): 651.35 ± 0.36 kg/m3; mass density (362.88 K, 12000 kPa, x2 = 0.1654): 654.65 ± 0.37 kg/m3; mass density (362.88 K, 12000 kPa, x2 = 0.2199): 652.59 ± 0.37 kg/m3; mass density (362.88 K, 13000 kPa, x2 = 0.1654): 655.84 ± 0.38 kg/m3; mass density (362.88 K, 13000 kPa, x2 = 0.2199): 653.81 ± 0.38 kg/m3; mass density (362.88 K, 14000 kPa, x2 = 0.1654): 657.01 ± 0.39 kg/m3; mass density (362.88 K, 14000 kPa, x2 = 0.2199): 654.99 ± 0.39 kg/m3; mass density (362.88 K, 15000 kPa, x2 = 0.1654): 658.17 ± 0.4 kg/m3; mass density (362.88 K, 15000 kPa, x2 = 0.2199): 656.16 ± 0.4 kg/m3; mass density (362.88 K, 16000 kPa, x2 = 0.1654): 659.3 ± 0.4 kg/m3; mass density (362.88 K, 16000 kPa, x2 = 0.2199): 657.29 ± 0.41 kg/m3; mass density (362.88 K, 17000 kPa, x2 = 0.1654): 660.41 ± 0.41 kg/m3; mass density (362.88 K, 17000 kPa, x2 = 0.2199): 658.42 ± 0.42 kg/m3; mass density (362.88 K, 18000 kPa, x2 = 0.1654): 661.5 ± 0.42 kg/m3; mass density (362.88 K, 18000 kPa, x2 = 0.2199): 659.52 ± 0.43 kg/m3; mass density (362.88 K, 19000 kPa, x2 = 0.1654): 662.58 ± 0.43 kg/m3; mass density (362.88 K, 19000 kPa, x2 = 0.2199): 660.6 ± 0.44 kg/m3; mass density (362.88 K, 20000 kPa, x2 = 0.1654): 663.6 ± 0.44 kg/m3; mass density (362.88 K, 20000 kPa, x2 = 0.2199): 661.65 ± 0.45 kg/m3; mass density (362.88 K, 21000 kPa, x2 = 0.1654): 664.63 ± 0.45 kg/m3; mass density (362.88 K, 21000 kPa, x2 = 0.2199): 662.67 ± 0.46 kg/m3; mass density (362.88 K, 22000 kPa, x2 = 0.1654): 665.63 ± 0.46 kg/m3; mass density (362.88 K, 22000 kPa, x2 = 0.2199): 663.67 ± 0.46 kg/m3; mass density (362.88 K, 23000 kPa, x2 = 0.1654): 666.61 ± 0.47 kg/m3; mass density (362.88 K, 23000 kPa, x2 = 0.2199): 664.66 ± 0.47 kg/m3; mass density (362.88 K, 24000 kPa, x2 = 0.1654): 667.57 ± 0.48 kg/m3; mass density (362.88 K, 24000 kPa, x2 = 0.2199): 665.61 ± 0.48 kg/m3; mass density (362.88 K, 25000 kPa, x2 = 0.1654): 668.52 ± 0.49 kg/m3; mass density (362.88 K, 25000 kPa, x2 = 0.2199): 666.56 ± 0.49 kg/m3; mass density (362.89 K, 1000 kPa, x2 = 0.9308): 599.76 ± 0.29 kg/m3; mass density (362.89 K, 2000 kPa, x2 = 0.9308): 601.55 ± 0.3 kg/m3; mass density (362.89 K, 3000 kPa, x2 = 0.9308): 603.31 ± 0.31 kg/m3; mass density (362.89 K, 4000 kPa, x2 = 0.9308): 605.04 ± 0.32 kg/m3; mass density (362.89 K, 5000 kPa, x2 = 0.9308): 606.72 ± 0.33 kg/m3; mass density (362.89 K, 6000 kPa, x2 = 0.9308): 608.38 ± 0.34 kg/m3; mass density (362.89 K, 7000 kPa, x2 = 0.9308): 610.01 ± 0.35 kg/m3; mass density (362.89 K, 8000 kPa, x2 = 0.9308): 611.58 ± 0.36 kg/m3; mass density (362.89 K, 9000 kPa, x2 = 0.9308): 613.16 ± 0.37 kg/m3; mass density (362.89 K, 10000 kPa, x2 = 0.9308): 614.68 ± 0.38 kg/m3; mass density (362.89 K, 11000 kPa, x2 = 0.9308): 616.17 ± 0.39 kg/m3; mass density (362.89 K, 12000 kPa, x2 = 0.9308): 617.64 ± 0.4 kg/m3; mass density (362.89 K, 13000 kPa, x2 = 0.9308): 619.07 ± 0.41 kg/m3; mass density (362.89 K, 14000 kPa, x2 = 0.9308): 620.48 ± 0.42 kg/m3; mass density (362.89 K, 15000 kPa, x2 = 0.9308): 621.85 ± 0.43 kg/m3; mass density (362.89 K, 16000 kPa, x2 = 0.9308): 623.2 ± 0.44 kg/m3; mass density (362.89 K, 17000 kPa, x2 = 0.9308): 624.51 ± 0.45 kg/m3; mass density (362.89 K, 18000 kPa, x2 = 0.9308): 625.8 ± 0.46 kg/m3; mass density (362.89 K, 19000 kPa, x2 = 0.9308): 627.06 ± 0.47 kg/m3; mass density (362.89 K, 20000 kPa, x2 = 0.9308): 628.28 ± 0.48 kg/m3; mass density (362.89 K, 21000 kPa, x2 = 0.9308): 629.48 ± 0.5 kg/m3; mass density (362.89 K, 22000 kPa, x2 = 0.9308): 630.64 ± 0.51 kg/m3; mass density (362.89 K, 23000 kPa, x2 = 0.9308): 631.79 ± 0.52 kg/m3; mass density (362.89 K, 24000 kPa, x2 = 0.9308): 632.9 ± 0.53 kg/m3; mass density (362.89 K, 25000 kPa, x2 = 0.9308): 634.01 ± 0.55 kg/m3; mass density (362.9 K, 1000 kPa, x2 = 0.7995): 608.76 ± 0.28 kg/m3; mass density (362.9 K, 2000 kPa, x2 = 0.7995): 610.47 ± 0.29 kg/m3; mass density (362.9 K, 3000 kPa, x2 = 0.7995): 612.13 ± 0.3 kg/m3; mass density (362.9 K, 4000 kPa, x2 = 0.7995): 613.77 ± 0.31 kg/m3; mass density (362.9 K, 5000 kPa, x2 = 0.7995): 615.41 ± 0.32 kg/m3; mass density (362.9 K, 6000 kPa, x2 = 0.7995): 616.94 ± 0.33 kg/m3; mass density (362.9 K, 7000 kPa, x2 = 0.7995): 618.5 ± 0.34 kg/m3; mass density (362.9 K, 8000 kPa, x2 = 0.7995): 620.01 ± 0.35 kg/m3; mass density (362.9 K, 9000 kPa, x2 = 0.7995): 621.5 ± 0.36 kg/m3; mass density (362.9 K, 10000 kPa, x2 = 0.7995): 622.96 ± 0.37 kg/m3; mass density (362.9 K, 11000 kPa, x2 = 0.7995): 624.39 ± 0.38 kg/m3; mass density (362.9 K, 12000 kPa, x2 = 0.7995): 625.81 ± 0.39 kg/m3; mass density (362.9 K, 13000 kPa, x2 = 0.7995): 627.18 ± 0.4 kg/m3; mass density (362.9 K, 14000 kPa, x2 = 0.7995): 628.53 ± 0.41 kg/m3; mass density (362.9 K, 15000 kPa, x2 = 0.7995): 629.85 ± 0.42 kg/m3; mass density (362.9 K, 16000 kPa, x2 = 0.7995): 631.14 ± 0.43 kg/m3; mass density (362.9 K, 17000 kPa, x2 = 0.7995): 632.42 ± 0.44 kg/m3; mass density (362.9 K, 18000 kPa, x2 = 0.7995): 633.67 ± 0.45 kg/m3; mass density (362.9 K, 19000 kPa, x2 = 0.7995): 634.88 ± 0.46 kg/m3; mass density (362.9 K, 20000 kPa, x2 = 0.7995): 636.08 ± 0.48 kg/m3; mass density (362.9 K, 21000 kPa, x2 = 0.7995): 637.22 ± 0.49 kg/m3; mass density (362.9 K, 22000 kPa, x2 = 0.7995): 638.34 ± 0.5 kg/m3; mass density (362.9 K, 23000 kPa, x2 = 0.7995): 639.44 ± 0.51 kg/m3; mass density (362.9 K, 24000 kPa, x2 = 0.7995): 640.51 ± 0.52 kg/m3; mass density (362.9 K, 25000 kPa, x2 = 0.7995): 641.57 ± 0.54 kg/m3
